The text below walks through data of patent publication US8338568B2, “Chimeric PCSK9 proteins, cells comprising same, and assays using same” (Adaerata, Limited Partnership, priority 2006, dated 2012).

In one assay the target is T1, Furin (Homo sapiens, UniProt P09958).
T1 construct: endogenous in cells; host or cells: HEK293
Kind of assay: Cleavability of PCSK9 mutants by Furin in HEK293 cells (pulse-labelling, V5 immunoprecipitation). In kind it is cell-based. The following applies: for processing by co-expressed Furin: co-transfection with Furin, FIG. 8; for processing at Arg218 by endogenous Furin: 5 h pulse-labelling, FIG. 9. Here is the method:
Twenty four hours following the co-transfection of the PCSK9 natural mutants and each PC or with an empty vector control (pIRES). The cells were labeled with [^35S] [Met+Cys] for 5 h (P5h) and the cell lysates (Cells) and media analyzed as in FIG. 7. The stars point to lanes where either processing occurred (Furin and PC5A) or was inhibited by the presence of the mutation (R^218S with furin). Cleavage sites GTRFHS^218↓QA (SEQ ID NO: 17); GTRLHR^218↓QA (SEQ ID NO: 18);
[Met+Cys] as described in FIG. 7. The star emphasizes the effectiveness of the RRRR218EL (SEQ ID NO: […]) mutant to allow the complete processing of PCSK9 into the PCSK9-ΔN218 form by endogenous Furin. PCSK9 amino acid sequence in the vicinity of position 218 RFHR218QA (SEQ ID NO: 4) (WT); RFHR218EA (SEQ ID NO: 6) (Q219E); RFHR218EL (SEQ ID NO: 7) (QA219,220EL); RRRR218EL (SEQ ID NO: 5);
Was next tested the hypothesis that cleavage at Arg218 is performed by one or more basic amino acid PCs. Accordingly, wild type PCSK9 was co-expressed with all the convertases as well as with β-secretase BACE1 in HEK293 cells. Cells transiently transfected with vectors expressing hPCSK9-V5 and/or the different convertases (as indicated at the top of lanes) were pulse-labeled with ^35S-(Met+Cys) for 4 h and cell extracts (Cells) and media (Media) were immunoprecipitated with a V5 antibody and the precipitates were resolved by SDS/PAGE. […] The N-terminally truncated N2 product is thus referred to as PCSK9-ΔN218 (SEQ ID NO: 32) (PCSK9 lacking the first 218 amino acids; FIG. 5). […] The R218S mutation abrogates the Furin/PC5A cleavage at the sequence RFHR218.
Based on the crystal structure of Furin (Henrich et al., 2003) and the analysis of its many substrates (Seidah and Chretien, 1999), the best substrates of Furin would have the motif RX(R/K)R↓(E/D)L (SEQ ID NO: 115). This led the applicants to produce mutants of PCSK9 that should greatly enhance the ability of Furin to process this molecule. […] Notice the almost absence of prosegment co-immunoprecipitating with the PCSK9-ΔN218 form produced (FIG. 9), which would be predicted since such cleavage would remove the PCSK9 segment 153-218 (SEQ ID NO: 31), which contains the active site Asp^186.

For assay [1], the system named is LDLR. The assay can be described thus: Western blot of endogenous LDLR level in HuH7 cells transiently transfected with PCSK9 constructs. As to conditions: compared to pIRES empty vector, FIG. 10. The assay is classed as cell-based, human. The source says: Cells expressed either full length PCSK9 (FL-PCSK9), namely wild type sequence (WT), mutated R218S, RRRREL (SEQ ID NO: 5) or active site H226A; a truncated PCSK9 construct with the Cys/His rich domain (signal peptide fused to amino acid 455-692 of PCSK9 and ending with a V5 tag) (CHRD) or the empty vector control (pIRES-2). The levels of β-actin was used as control, as well as the level of PCSK9 intracellular proteins produced (detected by a V5-mAb);
Accordingly, the activity on the degradation of LDLR of wild type PCSK9, its R218S mutant, the RRRR218EL (SEQ ID NO: 5) variant, the active site mutant H226A and the Cys/His-rich domain of PCSK9 (aa 454-692 CHRD) was analyzed by Western blots in HuH7 cells (Benjannet et al., 2004) (FIG. 10).
Background: Immunoblotting shows a protein as a band on a membrane.

The subject of assay [2] is VLDLR. Kind of assay: Transgenic mice overexpressing PCSK9-V5 in hepatocytes: VLDLR in skeletal muscle, circulating LDL-cholesterol. The assay is classed as in vivo, mouse. Here is the method:
The transgenic protein was tagged with a V5 at its C-terminus to differentiate it from the endogenous one. […] This is the first evidence that circulating PCSK9 can enhance the degradation of VLDLR in vivo and at distant sites away from those of its synthesis.
Immunohistochemistry of VLDLR (red) in skeletal mouse muscles of control Pcsk9+/+, Pcsk9−/− (Pcsk9 knockout) and transgenic mice (Tg-hPcsk9-V5). The nuclei were stained using TO-PRO-3 (blue; invitrogen). scale: […]; and
A transgenic mice specifically overexpressing PCSK9 in hepatocytes was generated. The transgene was under the control of the ApoE promoter and enhancer regulation. […] The transgenic protein was tagged with a V5 at its c-terminus to differentiate it from the endogenous one. […] Immunofluorescence and Confocal Microscopy analyses of the skeletal mouse muscles were performed using a rabbit polyclonal Ab:VLDLR (a74; 1:200). Immunofluorescence analyses were performed with a Zeiss™ LSM-510 confocal microscope. Confocal immunofluorescence microscopy was performed with a Nikon Eclipse™ TE2000-U laser-scanning microscope with 408, 488, and 543-nm laser lines. Images were processed with Adobe Photoshop™ CS2, version 9.0 (Adobe Systems). […] This is the first evidence that circulating PCSK9 can enhance the degradation of VLDLR in vivo. The decrease level of VLDLR in the transgenic mice overexpressing PCSK9 in the liver was also confirm by immunodetection of PCSK9 in extracts of skeletal muscle (see FIG. 21).

Assay [3] has as its system LDLR. The assay can be described thus: Western blot of LDLR level in HEK293 cells co-transfected with LDLR and PCSK9 or PCSK9-TM-CT chimera. The assay is classed as cell-based, human. As to conditions: HEK293 cells co-transfected with LDLR; compared to wild type PCSK9; FIG. 4. Here is the method:
Note that NH4Cl allows the rescue from degradation of an intermediate immunoreactive ˜105 kDa form of LDLR that is likely found in endosomes. The pIRES lanes represent the empty vector pIRES-2 either alone or co-transfected with LDLR (as indicated at the bottom of the panel) as controls;
HEK293 cells were transiently transfected with different PCSK9-chimera constructions (Benjannet et al., 2004). […] Cells were either treated (+) or not (−) with 5 mM NH4Cl for 24 h. Note that NH4Cl allows the rescue from degradation of an intermediate immunoreactive ˜105 kDa form of LDLR that is likely found in endosomes. The pIRES lanes represent the empty vector pIRES-2 either alone or co-transfected with LDLR (as indicated at the bottom of the panel) as controls.

The test system of a further assay is ApoER2. Kind of assay: Western blot of overexpressed ApoER2 in cells co-transfected with PCSK9 constructs. The assay is classed as cell-based. The following applies: for degradation of ApoER2: overexpressed receptor, transient co-transfection, FIGS. 13 and 14. The source says: (§1) The triangle indicates the position in the gel of respectively ApoER2 (first panel), VLDLR (second panel) and LDLR (third panel). […] The PCSK9 Y38F is a mutant where the Tyr-sulfation of the prosegment is eliminated. The intracellular levels of PCSK9 (detected by a specific in-house polyclonal antibody made in rabbits against human PCSK9) are shown in the corresponding cell lysates in the lower panels;
The intracellular levels of PCSK9 (detected by a specific in house antibody against human PCSK9) are shown in the bottom panels;

Assay [4] concerns VLDLR. The assay can be described thus: Western blot of overexpressed VLDLR in CHOK1 cells co-transfected with PCSK9 constructs. The assay is classed as cell-based. As to conditions: overexpressed receptor, transient co-transfection; FIG. 13.
Description: as §1

Assay [5] has as its system LDLR. The assay can be described thus: Western blot of overexpressed LDLR in CHOK1 cells co-transfected with PCSK9 constructs. The assay is classed as cell-based. As to conditions: overexpressed receptor, transient co-transfection; FIG. 13.
Description: as §1

The next assay concerns basic aa-specific PCs. Kind of assay: Inhibition of PC processing of overexpressed human PCSK9 in HEK293 cells (pulse-labelling, V5 immunoprecipitation). In kind it is cell-based. As to conditions: co-expression with PCSK9 in HEK293 cells; FIG. 7. Here is the method:
Twenty four hours following the co-transfection of PCSK9 with a PC or with an empty vector control (the pIRES-2 vector from Invitrogen), the cells were labeled with [^35S] [Met+Cys] for 4 h (P4h). The cell lysates (Cells) and media were immunoprecipitated with a V5-mAb and the immunoprecipitates resolved by SDS-PAGE, as described (Seidah et al., 2003). sFurin represents the soluble form of furin lacking the transmembrane-cytosolic tail (Decroly et al., 1996). The stars point to lanes where either processing occurred (with Furin and PC5A) or was inhibited (α1-PDX). From now on, N2 is defined herein as the N-terminal 218 amino acid truncated PCSK9 product (PCSK9-ΔN218). The pIRES lanes represent the empty vector pIRES-2 either alone or co-transfected with PCSK9 (as indicated at the bottom of the panel) as controls;
Was next tested the hypothesis that cleavage at Arg218 is performed by one or more basic amino acid PCs. Accordingly, wild type PCSK9 was co-expressed with all the convertases as well as with β-secretase BACE1 in HEK293 cells. Cells transiently transfected with vectors expressing hPCSK9-V5 and/or the different convertases (as indicated at the top of lanes) were pulse-labeled with ^35S-(Met+Cys) for 4 h and cell extracts (Cells) and media (Media) were immunoprecipitated with a V5 antibody and the precipitates were resolved by SDS/PAGE. […]

T1 sequence (P09958 108-794): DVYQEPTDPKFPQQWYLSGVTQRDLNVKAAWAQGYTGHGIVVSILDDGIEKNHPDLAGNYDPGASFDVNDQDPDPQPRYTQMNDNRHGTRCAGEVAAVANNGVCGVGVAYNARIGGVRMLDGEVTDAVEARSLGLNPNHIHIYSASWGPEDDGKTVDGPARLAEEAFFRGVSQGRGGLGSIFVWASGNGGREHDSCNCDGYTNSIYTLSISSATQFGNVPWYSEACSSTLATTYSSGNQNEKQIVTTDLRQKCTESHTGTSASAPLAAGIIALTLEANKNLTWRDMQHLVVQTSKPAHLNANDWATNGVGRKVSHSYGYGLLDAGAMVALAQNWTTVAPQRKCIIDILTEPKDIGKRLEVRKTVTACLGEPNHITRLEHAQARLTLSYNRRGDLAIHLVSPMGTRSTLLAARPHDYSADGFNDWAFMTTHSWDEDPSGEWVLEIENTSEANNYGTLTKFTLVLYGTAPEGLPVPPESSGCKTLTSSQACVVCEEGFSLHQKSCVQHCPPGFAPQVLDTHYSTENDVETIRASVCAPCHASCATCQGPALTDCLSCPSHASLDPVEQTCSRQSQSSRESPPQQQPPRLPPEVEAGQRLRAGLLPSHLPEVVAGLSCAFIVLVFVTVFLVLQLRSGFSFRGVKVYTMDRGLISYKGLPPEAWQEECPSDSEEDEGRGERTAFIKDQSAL

In the case of “F216L: natural PCSK9 mutant Phe216-to-Leu, hypercholesterolemia-associated”, the “processing by co-expressed Furin” value with Furin is “cleaves to a lesser extent”. Take “H226A: active site mutant of PCSK9, an inactive enzyme form that remains as zymogen in the ER [reference compound]”: the “activity in enhancing the degradation of the LDLR” value (“activity” below) with LDLR [1] was “inactive”. “PCSK9-V5: transgenic PCSK9 tagged with V5 at its C-terminus, overexpressed in mouse hepatocytes”: in the assay on VLDLR [2] (transgenic mice overexpressing PCSK9 in hepatocytes), the “circulating LDL-Cholesterol” value is “quite elevated”. Also, in the assay with VLDLR [2] (transgenic mice versus control littermates, immunofluorescence, FIG. 21), the “level of VLDLR in skeletal muscle” value was “dramatically decreased”. Besides, in the assay on VLDLR [2] (transgenic mice versus non-transgenic control littermates), the “decrease of VLDLR level in muscle” value is recorded as “at least 3 fold”. For “PCSK9-[TM-CT of ACE2]: chimera of full-length human PCSK9 (1-692) fused to the transmembrane and cytosolic domains of ACE2, SEQ ID NO: 27”, the “degradation of LDLR” value with LDLR [3] is recorded as “much more effective than the wild type (WT) PCSK9”. As for “PCSK9-[TM-CT of LDLR]: chimera of full-length human PCSK9 (1-692) indirectly fused to the transmembrane and cytosolic domains of LDLR, SEQ ID NO: 20”, in the assay on LDLR [3], the “degradation of LDLR” value is recorded as “much more effective than the wild type (WT) PCSK9”. For “PCSK9-[TM-CT of Lamp1]: chimera of full-length human PCSK9 (1-692) fused to the transmembrane and cytosolic domains of Lamp1, SEQ ID NO: 24”, the “degradation of LDLR” value with LDLR [3] is “more powerful chimera to enhance the degradation of the LDLR”; in the assay on LDLR [5], “highest efficacy of degradation”. In addition, the “level of ApoER2” value with ApoER2 (CHOK1, Neuro2A, HuH7 and HEKL293 cells, FIG. 14) was “significantly decreased the level of ApoER2 in all cells tested”. The “degradation of ApoER2” value in the assay with ApoER2 is “highest efficacy of degradation”. Also, in the assay on VLDLR [4], the “degradation of VLDLR” value was “highest efficacy of degradation”. With “PCSK9-ΔN218: C-terminal fragment of the furin/PC5-cleaved PCSK9 (219-692), SEQ ID NO: 32”, the “activity” value in the assay on LDLR [1] is “inactive form of PCSK9”. In the case of “R218S: natural PCSK9 mutant Arg218-to-Ser, hypercholesterolemia-associated, Furin/PC5A-resistant”, the “activity” value in the assay with LDLR [1] was “active in enhancing the degradation of the LDLR”. Further, the “processing by co-expressed Furin” value with Furin is “can no longer process”. Turning to “RFHR218↓EA: PCSK9 mutant with motif RFHR218EA (SEQ ID NO: 6)”, in the assay with Furin, the “processing at Arg218 by endogenous Furin” value was “intermediate Furin-cleavability”.

For the molecule “RFHR218↓EL: PCSK9 mutant with motif RFHR218EL (SEQ ID NO: 7)”, the “processing at Arg218 by endogenous Furin” value in the assay with Furin is given as “intermediate Furin-cleavability”. On to “RRRR^218EL: PCSK9 variant with wild type RFHR218QA replaced by optimal Furin-recognition sequence RRRR218EL (SEQ ID NO: 5)”, for which the “activity” value in the assay with LDLR [1] was “inactive”. Also, the “processing at Arg218 by endogenous Furin” value in the assay with Furin is “completely process”. Turning to “wild type PCSK9: human full-length PCSK9 (1-692), SEQ ID NO: 21”, the “activity” value in the assay with LDLR [1] is given as “active in enhancing the degradation of the LDLR”. Also, the “degradation of ApoER2” value in the assay with ApoER2 is recorded as “degraded”. Further, the “degradation of VLDLR” value in the assay on VLDLR [4] is “degraded”. Take “α1-PDX: modified serpin which inhibits most of the basic aa-specific PCs”: the “inhibition of processing of PCSK9 into PCSK9-ΔN218” value with basic aa-specific PCs is “completely inhibits such processing into PCSK9-ΔN218”.

B1: CHRD: truncated PCSK9 construct: signal peptide fused to the Cys/His rich domain (amino acid 455-692) with V5 tag (protein)
chain: LFCRTVWSAHSGPTRMATAVARCAPDEELLSCSSFSRSGKRRGERMEAQGGKLVCRAHNAFGGEGVYAIARCCLLPQANCSVHTAPPAEASMGTRVHCHQQGHVLTGCSSHWEVEDLGTHKPPVLRPRGQPNQCVGHREASIHASCCHAPGLECKVKEHGIPAPQEQVTVACEEGWTLTGCSALPGTSHVLGAYAVDNTCVVRSRDVSTTGSTSEGAVTAVAICCRSRHLAQASQELQ
modifications: left off: small tags and cut ends
notes: truncated PCSK9 construct: signal peptide fused to the Cys/His rich domain (amino acid 455-692) with V5 tag
As to B1, the “activity” value in the assay with LDLR [1] is “inactive”.
